The values that follow come from US8951999B2, “Compounds” (Orexo AB, priority 2009, dated 2015).

Molecules are shown by their SMILES.

The target in the experiment is T1, recombinant human mPGES-1 (Homo sapiens, UniProt O14684).
T1 sequence (O14684 1-152): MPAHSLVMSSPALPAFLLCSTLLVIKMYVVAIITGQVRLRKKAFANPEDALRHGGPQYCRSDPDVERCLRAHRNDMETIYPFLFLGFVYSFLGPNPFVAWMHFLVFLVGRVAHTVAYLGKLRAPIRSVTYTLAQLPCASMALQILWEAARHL
Kind of experiment: Assay B: mPGES-1 enzyme assay (modified). In kind it is biochemical. Conditions: biological assay B (all other compounds); PGH2 final conc. 2 μM, HTRF; read-out: mPGES-1 inhibitory effect IC50. As for the experimental part:
Assay B: mPGES-1 Enzyme Assay (Modified)
The aim of this assay is to determine the affinity of a test compound for the mPGES-1 enzyme.
47 μl of recombinant human mPGES-1 (˜0.5 μg protein/well) containing microsomal suspension in a buffer containing GSH, (2.5 mmol/L L-Glutathione reduced, dissolved in 0.1 mol/L Phosphat Buffer pH 7.4) is dispensed in a 384-well plate and thereafter 1 μl of the test compound(s) is/are added and incubated for 25 minutes at room temperature. The enzyme reaction is started by the addition of 2 ul PGH2 (final conc. 2 μM) dissolved in water-free Diglyme. After 60 seconds the reaction is terminated by addition of a stop solution containing FeCl2 (10 μL 0.074 mol/l FeCl2). The samples are diluted between 1:25 in PBS (Phosphate Buffered Saline). 10 μl of the diluted samples are transferred to 384-well low volume plate. In order to quantify the amount of PGE2 that has been formed, a homogenous time resolved fluorescent (HTRF) detecting of PGE2 has been performed using a commercially available kit from Cisbio according to the manufactures recommendation. This HTRF-based assay has been described in detail (see: Goedken et al., J Biomol Screen, 2008, 13(7), 619-625). Briefly, the diluted samples are mixed with […] PGE2-d2 conjugate and 5 μl anti-PGE2 cryptate conjugate. After an incubation period of the plates over night, the fluorescence is measured by the use of an appropriate microplate reader.
The fluorescence of Europium cryptate (maxex=307 nm, maxem=620 nm) and d2-PGE2 (maxex=620 nm, maxem=665 nm) are measured.
The extent of the specific HTRF is measured as a ratio of the emission intensity at 665 nm vs. that at 620 nm at an excitation pulse of 320 nm. The quantification plate contains also wells with different concentrations of PGE2 as calibration curve for the calculation of the PGE2 concentrations from the HTRF ratio values.
From all mPGES enzyme assay the background is subtracted and the IC50 is calculated over a nonlinear regression with conventional software.
In the case of `CC(C)(C(=O)NCc1ccc(Cl)c(C(=O)Nc2ccc(OCC(F)F)c(C(=O)NC3CCC(CO)CC3)c2)c1)C(F)(F)F` (centres unmarked) [Example 103], the IC50 stood at 237 nM. As for `CC(C)(C(=O)NCc1ccc(Cl)c(C(=O)Nc2ccc(OCC(F)F)c(C(=O)Nc3cc(F)cc(Cl)c3)c2)c1Cl)C(F)(F)F` [Example 151], the IC50 is 1 nM. As for `CC(C)(C(=O)NCc1ccc(Cl)c(C(=O)Nc2ccc(OCC(F)F)c(C(=O)Nc3ccc(F)c(Cl)c3)c2)c1Cl)C(F)(F)F` [Example 145, N-[4-(2,2-difluoroethyl)oxy-3-(4-fluoro-3-chlorophenyl)aminocarbonyl-phenyl]-2,6-dichloro-3-[(2,2,2-trifluoro-1,1-dimethyl-ethyl)carbonylamino]methyl-benzamide], the IC50 was 10 nM. For the compound `CC(C)(C(=O)NCc1ccc(Cl)c(C(=O)Nc2ccc(OCC(F)F)c(C(=O)Nc3cc(C(F)(F)F)ccn3)c2)c1)C(F)(F)F` [Example 109], the IC50 was 13 nM.

Turning to `CC(C)(C(=O)NCc1ccc(Cl)c(C(=O)Nc2ccc(OCC(F)F)c(C(=O)Nc3nc4c(s3)CCC4)c2)c1)C(F)(F)F` [Example 127], the IC50 is 19 nM. `CC(C)(C(=O)NCc1ccc(Cl)c(C(=O)Nc2ccc(OCC(F)F)c(C(=O)NCc3cccc(C(F)(F)F)c3)c2)c1)C(F)(F)F` [Example 101]: the IC50 is 9 nM. With `CC(C)(C(=O)NCc1ccc(Cl)c(C(=O)Nc2ccc(OCC(F)F)c(C(=O)NC3CCC(F)(F)CC3)c2)c1Cl)C(F)(F)F` [Example 157], the IC50 amounted to 22 nM.

On to `CC(C)(C(=O)NCc1ccc(Cl)c(C(=O)Nc2ccc(OCC(F)F)c(C(=O)Nc3ccc(F)cc3Cl)c2)c1)C(F)(F)F` [Example 116], for which the IC50 worked out at 6 nM.

With `CC(C)(C(=O)NCc1ccc(Cl)c(C(=O)Nc2ccc(OCC(F)F)c(C(=O)Nc3ccncc3Cl)c2)c1)C(F)(F)F` [Example 137], the IC50 worked out at 9 nM. In the case of `CC(C)(C(=O)NCc1ccc(Cl)c(C(=O)Nc2ccc(OCC(F)F)c(C(=O)Nc3ccc(Cl)c(Cl)c3)c2)c1)C(F)(F)F` [Example 125], the IC50 was found to be 5 nM. The value for `Cn1cccc1C(=O)NCc1ccc(Cl)c(C(=O)Nc2ccc(OCC(F)F)c(C(=O)Nc3ccc(Br)cc3)c2)c1` [Example 167] was 47 nM.

Turning to `COCCOc1ccc(NC(=O)c2cc(CNC(=O)C3(C(F)(F)F)CC3)ccc2Cl)cc1C(=O)N[C@H]1CC[C@H](C(F)(F)F)CC1` [Example 53, N-[4-(2-Methoxy)ethoxy-3-(trans-4-trifluoromethylcyclohexyl)aminocarbonyl-phenyl]-2-chloro-5-[1-(trifluoromethyl)cyclopropyl]carbonylaminomethyl-benzamide], the IC50 amounted to 11 nM.

As to `CC(C)(C(=O)NCc1ccc(Cl)c(C(=O)Nc2ccc(OC3CCOC3)c(C(=O)Nc3ccc(Br)cc3)c2)c1)C(F)(F)F` (centres unmarked) [Example 69], the IC50 turned out to be 4 nM. As for `CC(C)(C)C(=O)NCc1ccc(Cl)c(C(=O)Nc2cnc(OCC(F)F)c(C(=O)Nc3ccc(Cl)c(F)c3)c2)c1Cl` [Example 76], the IC50 was found to be 12 nM.

Turning to `CC(C)(C(=O)NCc1ccc(Cl)c(C(=O)Nc2ccc(OCC(F)F)c(C(=O)NCC3CC3)c2)c1)C(F)(F)F` [Example 95], the IC50 came to 8 nM. Regarding `CC(C)(C(=O)NCc1ccc(Cl)c(C(=O)Nc2ccc(OCC(F)F)c(C(=O)Nc3ccc(F)c(Cl)c3)c2)c1F)C(F)(F)F` [Example 77, N-[4-(2,2-Difluoroethyl)oxy-3-(4-fluoro-3-chloro-phenyl)aminocarbonyl-phenyl]-6-chloro-2-fluoro-3-[(2,2,2-trifluoro-1,1-dimethyl-ethyl)carbonylamino]methyl-benzamide], the IC50 amounted to 2 nM.

As to `CC1(C)CC1CNC(=O)c1cc(NC(=O)c2cc(CNC(=O)C(C)(C)C(F)(F)F)ccc2Cl)ccc1OCC(F)F` (centres unmarked) [Example 107], the 50% inhibitory concentration (IC50) is 5 nM. The result for `CC(C)(C)C(=O)NCc1ccc(Cl)c(C(=O)Nc2ccc(N3CCC(F)CC3)c(C(=O)Nc3ccc(Br)cc3)c2)c1Cl` [Example 61] reads 5 nM; that for `CC(C)(C(=O)NCc1ccc(Cl)c(C(=O)Nc2ccc(OCC(F)F)c(C(=O)Nc3cc(F)cc(Cl)c3)c2)c1)C(F)(F)F` [Example 113], 4 nM; that for `CC(C)(C(=O)NCc1ccc(Cl)c(C(=O)Nc2ccc(OCC(F)F)c(C(=O)Nc3ccc(Cl)c(C#N)c3)c2)c1)C(F)(F)F` [Example 106], 6 nM. Consider `CC(C)(C(=O)NCc1ccc(Cl)c(C(=O)Nc2ccc(OCC(F)F)c(C(=O)NCC(F)(F)F)c2)c1Cl)C(F)(F)F` [Example 147], for which the IC50 amounted to 8 nM.

On to `O=C(Nc1ccc(OC2CCOC2)c(C(=O)N[C@H]2CC[C@H](C(F)(F)F)CC2)c1)c1cc(CNC(=O)C2(C(F)(F)F)CC2)ccc1Cl` (some centres unmarked) [Example 68], for which the IC50 amounted to 9 nM.

For the compound `NC(C(=O)NCc1ccc(Cl)c(C(=O)Nc2ccc(OCC(F)F)c(C(=O)Nc3ccc(Br)cc3)c2)c1)C(F)(F)F` (centres unmarked) [Example 174], the IC50 worked out at 8 nM. As to `CC(C)(C(=O)NCc1ccc(Cl)c(C(=O)Nc2ccc(OCC(F)F)c(C(=O)Nc3ccc(F)c(Cl)c3)c2)c1)C(F)(F)F` [Example 128], the IC50 is 5 nM. As to `CC(C)(C(=O)NCc1ccc(Cl)c(C(=O)Nc2ccc(OCC(F)F)c(C(=O)NCC3CCCOC3)c2)c1)C(F)(F)F` (centres unmarked) [Example 98], the IC50 was 43 nM. As to `Cc1cc(NC(=O)c2cc(NC(=O)c3cc(CNC(=O)C(C)(C)C(F)(F)F)ccc3Cl)ccc2OCC(F)F)ccc1Cl` [Example 92], the IC50 came to 6 nM. Turning to `CNC(C)(C)C(=O)NCc1ccc(Cl)c(C(=O)Nc2ccc(OCC(F)F)c(C(=O)Nc3ccc(Br)cc3)c2)c1` [Example 176], the IC50 is 50 nM. The value for `CC(C)(C)C(=O)NCc1ccc(Cl)c(C(=O)Nc2ccc(OCC(F)F)c(C(=O)Nc3ccc(Br)cc3)c2)c1F` [Example 45, N-[4-(2,2-Difluoroethyl)oxy-3-(4-bromophenyl)aminocarbonyl-phenyl]-6-chlor-2-fluor-3-(tert-butylcarbonylamino)methyl-benzamide] was 4 nM. The value for `CC(C)(C)C(=O)NCc1ccc(Cl)c(C(=O)Nc2cnc(OCC(F)F)c(C(=O)Nc3cc(F)cc(Cl)c3)c2)c1Cl` [Example 75, N-[2-(2,2-Difluoroethoxy)-3-(3-chloro-5-fluorophenyl)aminocarbonyl-pyridin-5-yl]-2,6-dichloro-5-(tert-butylcarbonylamino)methyl-benzamide] was 6 nM; that for `CC(C)(C(=O)NCc1ccc(Cl)c(C(=O)Nc2ccc(OCC(F)F)c(C(=O)Nc3ccc(F)c(Cl)c3F)c2)c1)C(F)(F)F` [Example 134] was 7 nM; that for `CC(C)(C(=O)NCc1ccc(Cl)c(C(=O)Nc2ccc(OCC(F)F)c(C(=O)NCC(F)(F)C(F)(F)F)c2)c1)C(F)(F)F` [Example 114] was 10 nM.

Take `CC(C)(C)C(=O)NCc1ccc(F)c(C(=O)Nc2ccc(OCC(F)F)c(C(=O)N[C@H]3CC[C@H](C(F)(F)F)CC3)c2)c1F` [Example 50]: the IC50 is 34 nM.

For `COCCOc1ccc(NC(=O)c2cc(CNC(=O)C(C)C(F)(F)F)ccc2Cl)cc1C(=O)Nc1ccc(Br)cc1` (centres unmarked) [Example 65, N-[4-(2-Methoxy)ethoxy-3-(4-bromphenyl)aminocarbonyl-phenyl]-2-chloro-5-(2,2,2-trifluoro-1-methyl-ethyl)carbonylaminomethyl-benzamide], the concentration for half-maximal inhibition (IC50) was determined as 4 nM. Take `CC(C)(C(=O)NCc1ccc(Cl)c(C(=O)Nc2ccc(OCC(F)F)c(C(=O)Nc3ccc(Cl)c(F)c3)c2)c1)C(F)(F)F` [Example 108]: the IC50 was determined as 5 nM. Take `CC(C)(C(=O)NCc1ccc(Cl)c(C(=O)Nc2ccc(OCC(F)F)c(C(=O)NC3CCCC3)c2)c1)C(F)(F)F` [Example 111]: the IC50 was found to be 7 nM. Consider `CC(C)(C(=O)NCc1ccc(Cl)c(C(=O)Nc2ccc(OCC(F)F)c(C(=O)Nc3ccncn3)c2)c1)C(F)(F)F` [Example 118], for which the 50% inhibitory concentration (IC50) came out at 98 nM.

Regarding `N#CC1(C(=O)NCc2ccc(Cl)c(C(=O)Nc3ccc(OCC(F)F)c(C(=O)Nc4ccc(Br)cc4)c3)c2)CC1` [Example 173], the IC50 is 48 nM. With `CC(C)(C(=O)NCc1ccc(Cl)c(C(=O)Nc2ccc(OCC(F)F)c(C(=O)Nc3ncc(Cl)s3)c2)c1)C(F)(F)F` [Example 83], the IC50 came to 7 nM.

On to `CC(C)NC(=O)c1cc(NC(=O)c2cc(CNC(=O)C(C)(C)C(F)(F)F)ccc2Cl)ccc1OCC(F)F` [Example 110], for which the 50% inhibitory concentration (IC50) came to 17 nM. Regarding `CCNC(=O)c1cc(NC(=O)c2cc(CNC(=O)C(C)(C)C(F)(F)F)ccc2Cl)ccc1OCC(F)F` [Example 112], the IC50 stood at 16 nM. The value for `CC(C)(C(=O)NCc1ccc(Cl)c(C(=O)Nc2ccc(OCC(F)F)c(C(=O)NCCC(F)(F)F)c2)c1Cl)C(F)(F)F` [Example 146] was 14 nM.
